Test system: GM01896 cells (MPS II dermal fibroblasts)
Assay: Assay 1: MPS cellular assay, MPS II (heparan sulfate disaccharide biomarkers by LC-MS)
Type: cell-based, human
Settings: Homo sapiens, Fibroblast, Assay 1 for MPS II, heparan sulfate disaccharide biomarkers (I2a4, I2a6, I2S0 and/or I2S6), read-out: IC50 Range
How it was run: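 Heparan sulfate disaccharide biomarkers quantified by LC-MS after heparinase I/II/III digestion and isotopic aniline labelling, using GM01896 MPS II fibroblasts exposed to compound (at or below 30 μM, 4-21 days). Values given as IC50 by curve fitting; cell viability checked with alamar blue or ATP.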

SMILES	IC50 [nM]
Clc1ccc(Nc2cc(-c3ccc4cnn(CCCN5CCCC5)c4c3)nc(N3CCOCC3)n2)cc1 [(4-chlorophenyl){2-morpholin-4-yl-6-[1-(3-pyrrolidinylpropyl)(1H-indazol-6-yl)]pyrimidin-4-yl}amine]	1000 to 5000
Cc1nn(C)c2cc(-c3cc(Nc4ccc(-c5ncco5)cc4)nc(N4CCOCC4)n3)ccc12 [[6-(1,3-dimethyl(1H-indazol-6-yl))-2-morpholin-4-ylpyrimidin-4-yl](4-(1,3-oxazol-2-yl)phenyl)amine]	500 to 1000
Cn1cc2ccc(Nc3cc(-c4ccc5cnn(C)c5c4)nc(N4CCOCC4)n3)cc2n1 [[6-(1-methyl(1H-indazol-6-yl))-2-morpholin-4-ylpyrimidin-4-yl](2-methyl(2H-indazol-6-yl))amine]	1000 to 5000
Cn1ccc2ccc(Nc3cc(-c4ccc5c(CCCN6C(=O)c7ccccc7C6=O)nn(C)c5c4)nc(N4CCOCC4)n3)cc21 [2-[3-(1-methyl-6-{6-[(1-methylindol-6-yl)amino]-2-morpholin-4-ylpyrimidin-4-yl}-1H-indazol-3-yl)propyl]benzo[c]azoline-1,3-dione]	< 500
Cc1nc2ccc(-c3cc(Nc4ccc(Cl)cc4)nc(N4CCOCC4)n3)cc2n1CCN1CCOCC1 [(4-chlorophenyl){6-[2-methyl-1-(2-morpholin-4-ylethyl)benzimidazol-6-yl]-2-morpholin-4-ylpyrimidin-4-yl}amine]	500 to 1000
Cc1nc2ccc(-c3cc(Nc4ccc5ccn(C)c5c4)nc(N4CCOCC4)n3)cc2n1CC1CC1 [{6-[1-(cyclopropylmethyl)-2-methylbenzimidazol-6-yl]-2-morpholin-4-ylpyrimidin-4-yl}(1-methylindol-6-yl)amine]	< 500
CN(C)c1nn(C)c2cc(-c3cc(Nc4ccc(Cl)cc4)nc(N4CCOCC4)n3)ccc12 [(6-{6-[(4-chlorophenyl)amino]-2-morpholin-4-ylpyrimidin-4-yl}-1-methyl(1H-indazol-3-yl))dimethylamine]	1000 to 5000
Clc1ccc(Nc2cc(-c3cccc4[nH]cnc34)nc(N3CCOCC3)n2)cc1 [6-(1H-benzo[d]imidazol-4-yl)-N-(4-chlorophenyl)-2-morpholinopyrimidin-4-amine]	500 to 1000
Cn1ncc2ncc(-c3cc(Nc4ccc(Cl)cc4)nc(N4CCOCC4)n3)cc21 [(4-chlorophenyl)[6-(1-methylpyrazolo[4,5-b]pyridin-6-yl)-2-morpholin-4-ylpyrimidin-4-yl]amine]	500 to 1000
CNC(=O)c1ccc(Nc2cc(-c3ccc4nc(C)n(CC5CC5)c4c3)nc(N3CCOCC3)n2)cc1 [[4-({6-[1-(cyclopropylmethyl)-2-methylbenzimidazol-6-yl]-2-morpholin-4-ylpyrimidin-4-yl}amino)phenyl]-N-methylcarboxamide]	< 500
Cc1nn(C)c2cc(-c3cc(Nc4ccc(-n5nccn5)cc4)nc(N4CCOCC4)n3)cnc12 [[6-(1,3-dimethylpyrazolo[4,5-b]pyridin-6-yl)-2-morpholin-4-ylpyrimidin-4-yl](4-(1,2,3-triazol-2-yl)phenyl)amine]	< 500
Cc1nn(C)c2cc(-c3cc(Nc4ccc(Cl)cc4)nc(N4CCOCC4)n3)ncc12 [[6-(1,3-dimethylpyrazolo[5,4-d]pyridin-6-yl)-2-morpholin-4-ylpyrimidin-4-yl](4-chlorophenyl)amine]	< 500
Cn1nc(NCCN2CCCC2)c2ccc(-c3cc(Nc4ccc(Cl)cc4)nc(N4CCOCC4)n3)cc21 [(4-chlorophenyl)(6-{1-methyl-3-[(2-pyrrolidinylethyl)amino](1H-indazol-6-yl)}-2-morpholin-4-ylpyrimidin-4-yl)amine]	500 to 1000
Cn1cnc2ccc(-c3cc(Nc4ccc(C(=O)NC5CC5)cc4)nc(N4CCOCC4)n3)cc21 [N-cyclopropyl(4-{[6-(1-methylbenzimidazol-6-yl)-2-morpholin-4-ylpyrimidin-4-yl]amino}phenyl)carboxamide]	1000 to 5000
COCCn1cnc2ccc(-c3cc(Nc4ccc(C(=O)OC)cc4)nc(N4CCOCC4)n3)cc21 [methyl 4-({6-[1-(2-methoxyethyl)benzimidazol-6-yl]-2-morpholin-4-ylpyrimidin-4-yl}amino)benzoate]	< 500
Clc1ccc(Nc2cc(-c3ccc4c(c3)ncn4CC3CC3)nc(N3CCOCC3)n2)cc1 [(4-chlorophenyl){6-[1-(cyclopropylmethyl)benzimidazol-5-yl]-2-morpholin-4-ylpyrimidin-4-yl}amine]	500 to 1000
Cn1cnc2ccc(Nc3cc(-c4ccc5cnn(C)c5c4)nc(N4CCOCC4)n3)cc21 [[6-(1-methyl(1H-indazol-6-yl))-2-morpholin-4-ylpyrimidin-4-yl](1-methylbenzimidazol-6-yl)amine]	500 to 1000
Cn1cnc2ccc(-c3cc(Nc4ccc(Br)cc4)nc(N4CCOCC4)n3)cc21 [(4-bromophenyl)[6-(1-methylbenzimidazol-6-yl)-2-morpholin-4-ylpyrimidin-4-yl]amine]	500 to 1000
Cc1nn(CCCN(C)C)c2cc(-c3cc(Nc4ccc(Cl)cc4)nc(N4CCOCC4)n3)ccc12 [[3-(6-{6-[(4-chlorophenyl)amino]-2-morpholin-4-ylpyrimidin-4-yl}-3-methyl(1H-indazolyl))propyl]dimethylamine]	500 to 1000

SMILES	IC50 [nM]
Cn1cnc2ccc(-c3cc(Nc4ccc(F)cc4)nc(N4CCOCC4)n3)cc21 [(4-fluorophenyl)[6-(1-methylbenzimidazol-6-yl)-2-morpholin-4-ylpyrimidin-4-yl]amine]	1000 to 5000
Cn1cnc2ccc(-c3cc(Nc4ccc(C(=O)NC5CC5)nc4)nc(N4CCOCC4)n3)cc21 [N-cyclopropyl(5-{[6-(1-methylbenzimidazol-6-yl)-2-morpholin-4-ylpyrimidin-4-yl]amino}(2-pyridyl))carboxamide]	500 to 1000
Cn1ncc2ccc(-c3cc(Nc4ccc(-c5nnc[nH]5)cc4)nc(N4CCOCC4)n3)cc21 [(4-(4H-1,2,4-triazol-3-yl)phenyl)[6-(1-methyl(1H-indazol-6-yl))-2-morpholin-4-ylpyrimidin-4-yl]amine]	< 500
Cc1nn(-c2ccc(Nc3cc(-c4ccc5c(C)nn(C)c5c4)nc(N4CCOCC4)n3)cc2)nc1C [[4-(4,5-dimethyl(1,2,3-triazol-2-yl))phenyl][6-(1,3-dimethyl(1H-indazol-6-yl))-2-morpholin-4-ylpyrimidin-4-yl]amine]	1000 to 5000
Cc1nn(C)c2cc(-c3cc(Nc4ccc5cn[nH]c5c4)nc(N4CCOCC4)n3)ccc12 [1H-indazol-6-yl[6-(1,3-dimethyl(1H-indazol-6-yl))-2-morpholin-4-ylpyrimidin-4-yl]amine]	1000 to 5000
Cn1ccc2ccc(Nc3cc(-c4ccc5cnn(C)c5c4)nc(N4CCOCC4)n3)cc21 [[6-(1-methyl(1H-indazol-6-yl))-2-morpholin-4-ylpyrimidin-4-yl](1-methylindol-6-yl)amine]	< 500
Cc1nn(C)c2cc(-c3cc(Nc4ccc(-c5ccn(C)c5)cc4)nc(N4CCOCC4)n3)ccc12 [[6-(1,3-dimethyl(1H-indazol-6-yl))-2-morpholin-4-ylpyrimidin-4-yl][4-(1-methylpyrrol-3-yl)phenyl]amine]	1000 to 5000
Cc1nn(C)c2cc(-c3cc(Nc4ccc5[nH]ncc5c4)nc(N4CCOCC4)n3)ccc12 [1H-indazol-5-yl[6-(1,3-dimethyl(1H-indazol-6-yl))-2-morpholin-4-ylpyrimidin-4-yl]amine]	1000 to 5000
CC(C)NC(=O)c1ccc(Nc2cc(-c3ccc4ncn(C)c4c3)nc(N3CCOCC3)n2)cc1 [(4-{[6-(1-methylbenzimidazol-6-yl)-2-morpholin-4-ylpyrimidin-4-yl]amino}phenyl)-N-(methylethyl)carboxamide]	1000 to 5000
Cn1ccc2ccc(Nc3cc(-c4ccc5c(CCN6C(=O)c7ccccc7C6=O)nn(C)c5c4)nc(N4CCOCC4)n3)cc21 [2-[2-(1-methyl-6-{6-[(1-methylindol-6-yl)amino]-2-morpholin-4-ylpyrimidin-4-yl}-1H-indazol-3-yl)ethyl]benzo[c]azoline-1,3-dione]	500 to 1000
Cn1ccc(-c2ccc(Nc3cc(-c4ccc5cnn(C)c5c4)nc(N4CCOCC4)n3)cc2)n1 [[6-(1-methyl(1H-indazol-6-yl))-2-morpholin-4-ylpyrimidin-4-yl][4-(1-methylpyrazol-3-yl)phenyl]amine]	500 to 1000
Cn1cnc2ccc(-c3cc(Nc4ccc(NC(=O)OC(C)(C)C)cc4)nc(N4CCOCC4)n3)cc21 [(tert-butoxy)-N-(4-{[6-(1-methylbenzimidazol-6-yl)-2-morpholin-4-ylpyrimidin-4-yl]amino}phenyl)carboxamide]	1000 to 5000
Cn1ncc2ccc(-c3cc(Nc4ccc(-c5ccn[nH]5)cc4)nc(N4CCOCC4)n3)cc21 [[6-(1-methyl(1H-indazol-6-yl))-2-morpholin-4-ylpyrimidin-4-yl](4-pyrazol-5-ylphenyl)amine]	< 500
CNC(=O)c1ccc(Nc2cc(-c3ccc4cnn(C5CC5)c4c3)nc(N3CCOCC3)n2)cn1 [(5-{[6-(1-cyclopropyl(1H-indazol-6-yl))-2-morpholin-4-ylpyrimidin-4-yl]amino}(2-pyridyl))-N-methylcarboxamide]	< 500
COc1cc(Nc2cc(-c3ccc4c(cnn4C)c3)nc(N3CCOCC3)n2)ccn1 [(2-methoxy(4-pyridyl))[6-(1-methyl(1H-indazol-5-yl))-2-morpholin-4-ylpyrimidin-4-yl]amine]	1000 to 5000
Cn1ncc2ccc(-c3cc(Nc4ccc(C(=O)NC5CC5)cc4)nc(N4CCOCC4)n3)cc21 [N-cyclopropyl(4-{[6-(1-methyl(1H-indazol-6-yl))-2-morpholin-4-ylpyrimidin-4-yl]amino}phenyl)carboxamide]	1000 to 5000
Cc1nnc(-c2ccc(Nc3cc(-c4ccc5cnn(C)c5c4)nc(N4CCOCC4)n3)cc2)[nH]1 [[6-(1-methyl(1H-indazol-6-yl))-2-morpholin-4-ylpyrimidin-4-yl][4-(5-methyl(4H-1,2,4-triazol-3-yl))phenyl]amine]	< 500
Cn1ncc2ccc(-c3cc(Nc4ccc(-c5nc[nH]n5)cc4)nc(N4CCOCC4)n3)cc21 [[6-(1-methyl(1H-indazol-6-yl))-2-morpholin-4-ylpyrimidin-4-yl](4-(1,2,4-triazolyl)phenyl)amine]	500 to 1000

Reference: patent US20190151312A1, “HEPARAN SULFATE BIOSYNTHESIS INHIBITORS FOR THE TREATMENT OF DISEASES” (BioMarin Pharmaceutical Inc., priority 2014, published 2019)
